The source of these data is US6683077B2, “2-Amino-benzoxazinones for the treatment of viral infections” (G.D. Searle & Co., priority 1996, dated 2004).

Where only a bound is given, the exact number is not on record here.

The test system of this test is HCMV engineered virus RC256. In words: microbe, parasite or virus in culture. The settings on record: Human betaherpesvirus 5, Fibroblast, read-out: Antiviral Activity RC256, first value (EC50). The format is cell-based, human cytomegalovirus.
Turning to `Cc1c(CNC(=O)CCc2ccccc2)ccc2nc(N[C@@H](Cc3ccccc3)C(=O)N(C)Cc3cccnc3)oc(=O)c12` [Example 9aa, N-Methyl-αS-[[5-methyl-4-oxo-6-[[(1-oxo-3-phenylpropyl)amino]methyl]-4H-3,1-benzoxazin-2-yl]amino]-N-(3-pyridinylmethyl)benzenepropanamide], the EC50 came to 33 µM.

In the case of `CCN(Cc1ccccc1)C(=O)[C@H](Cc1ccccc1)Nc1nc2c(Br)cc(N)c(C)c2c(=O)o1` [Example 8g, αS-[(6-Amino-8-bromo-5-methyl-4-oxo-4H-3,1-benzoxazin-2-yl)amino]-N-ethyl-N-(phenylmethyl)benzenepropanamide], the EC50 is 8.5 µM.

As to `COc1ccc(C[C@H](Nc2nc3ccc(CNC(=O)CCc4ccncc4)c(C)c3c(=O)o2)C(=O)N(C)Cc2ccccc2)cc1` [Example 9f, N-[[2-[[1S-[(4-Methoxyphenyl)methyl]-2-[methyl(phenylmethyl)amino]-2-oxoethyl]amino]-5-methyl-4-oxo-4H-3,1-benzoxazin-6-yl]methyl]pyridine-4-propanamide], the EC50 came to 40 µM.

With `Cc1c(CNC(=O)OCCN(C)C)ccc2nc(N[C@@H](Cc3ccccc3)C(=O)N(C)Cc3ccccc3)oc(=O)c12` [Example 18g, 2-(Dimethylamino)ethyl[[5-methyl-2-[[2-[methyl(phenylmethyl)amino]-2-oxo-1S-(phenylmethyl)ethyl]amino]-4-oxo-4H-3,1-benzoxazin-6-yl]methyl]carbamate], the concentration for a half-maximal effect (EC50) came to 13 µM.

`Cc1c(NC(=O)OC(C)(C)C)ccc2nc(N[C@@H](Cc3c[nH]c4ccccc34)C(=O)N(C)C)oc(=O)c12` [Example 6o, N-[6-[[(1,1-Dimethylethoxy)carbonyl]amino]-5-methyl-4-oxo-4H-3,1-benzoxazin-2-yl]-L-tryptophan, dimethylamide]: the EC50 was found to be 59 µM.

For the compound `COC(=O)[C@H](Cc1ccccc1)Nc1nc2ccc(NC(=O)Cc3cccs3)c(C)c2c(=O)o1` [Example 11g, N-[6-[[(2-Thienylmethyl)carbonyl]amino]-5-methyl-4-oxo-4H-3,1-benzoxazin-2-yl]-L-phenylalanine, methyl ester], the EC50 was 10 µM.

Regarding `CCOC(=O)Nc1ccc2nc(N[C@@H](Cc3ccc(OC)cc3)C(=O)N(C)Cc3ccccc3)oc(=O)c2c1C` [Example 11r, Ethyl[2-[[1S-[(4-methoxyphenyl)methyl]-2-[methyl(phenylmethyl)amino]-2-oxoethyl]amino]-5-methyl-4H-3,1-benzoxazin-6-yl]carbamate], the concentration for a half-maximal effect (EC50) is 12 µM.

For the compound `COc1ccc(C[C@H](Nc2nc3ccc(CNC(=O)OCCN4CCCCC4)c(C)c3c(=O)o2)C(=O)N(C)Cc2ccccc2)cc1` [Example 18a, 2-(1-Piperidinyl)ethyl[[2-[[1S-[(4-methoxyphenyl)methyl]-2-[methyl(phenylmethyl)amino]-2-oxoethyl]amino]-5-methyl-4-oxo-3,1-benzoxazin-6-yl]methyl]carbamate], the EC50 was 5 µM.

Turning to `Cc1c(CNC(=O)CN(C)C)cc(Br)c2nc(N[C@@H](Cc3ccccc3)C(=O)N(C)Cc3ccccc3)oc(=O)c12` [Example 15a, αS-[[8-Bromo-6-[[[2-(dimethylamino)acetyl]amino]methyl]-5-methyl-4-oxo-4H-3,1-benzoxazin-2-yl]amino]-N-methyl-N-(phenylmethyl)benzenepropanamide], the EC50 amounted to 21 µM.

Take `COC(=O)[C@H](Cc1cc(I)c(OC)c(I)c1)Nc1nc2ccc(NC(=O)OC(C)(C)C)c(C)c2c(=O)o1` [Example 6s, N-[6-[[(1,1-Dimethylethoxy)carbonyl]amino]-5-methyl-4-oxo-4H-3,1-benzoxazin-2-yl]-3,5-diiodo-O-methyl-L-tyrosine, methyl ester]: the EC50 worked out at 18 µM.

In the case of `COc1ccc(C[C@H](Nc2nc3ccc(CNC(=O)OCCN4CCOCC4)c(C)c3c(=O)o2)C(=O)N(C)Cc2ccccc2)cc1` [Example 18b, 2-(4-Morpholinyl)ethyl[[2-[[1S-[(4-methoxyphenyl)methyl]-2-[methyl(phenylmethyl)amino]-2-oxoethyl]amino]-5-methyl-4-oxo-3,1-benzoxazin-6-yl]methyl]carbamate], the 50% effective concentration (EC50) amounted to 12 µM.

`CCN(CC)C(=O)[C@H](Cc1ccccc1)Nc1nc2ccc(NC(=O)OC(C)(C)C)c(C)c2c(=O)o1` [Example 6ee, 1,1-Dimethylethyl[2-[[2-(diethylamino)-2-oxo-1S-(phenylmethyl)ethyl]amino]-5-methyl-4-oxo-4H-3,1-benzoxazin-6-yl]carbamate]: the EC50 turned out to be 26 µM.

Take `COc1ccc(C[C@H](Nc2nc3ccc(CNC(=O)NC(C)(C)C)c(C)c3c(=O)o2)C(=O)N(C)Cc2ccccc2)cc1` [Example 12d, αS-[[6-[[[[(1,1-Dimethylethyl)amino]carbonyl]amino]methyl]-5-methyl-4-oxo-4H-3,1-benzoxazin-2-yl]amino]-4-methoxy-N-methyl-N-(phenylmethyl)benzenepropanamide]: the EC50 came to 14 µM.

With `CCN(Cc1ccccc1)C(=O)[C@H](Cc1ccccc1)Nc1nc2ccc(N)c(C)c2c(=O)o1` [Example 8f, αS-[(6-Amino-5-methyl-4-oxo-4H-3,1-benzoxazin-2-yl)amino]-N-ethyl-N-(phenylmethyl)benzenepropanamide], the EC50 was 17 µM.

As to `Cc1c(CNC(=O)OCc2ccccc2)ccc2nc(N[C@@H](Cc3ccc(Cl)cc3)C(=O)N(C)Cc3ccccc3)oc(=O)c12` [Example 9t, Phenylmethyl[[2-[[1S-[(4-chlorophenyl)methyl]-2-[methyl(phenylmethyl)amino]-2-oxoethyl]amino]-5-methyl-4-oxo-4H-3,1-benzoxazin-6-yl]methyl]carbamate], the EC50 was determined as 20 µM.

As for `COc1ccc(C[C@H](Nc2nc3ccc(NC(=O)OC(C)(C)C)c(C)c3c(=O)o2)C(=O)N(C)C)cc1` [Example 6d, N-[6-[[(1,1-Dimethylethoxy)carbonyl]amino]-5-methyl-4-oxo-4H-3,1-benzoxazin-2-yl]-O-methyl-L-tyrosine, dimethylamide], the 50% effective concentration (EC50) is 45 µM.

With `COC(=O)[C@H](Cc1ccc(OC)cc1)Nc1nc2cccc(C)c2c(=O)o1` [Example 1r, N-(5-Methyl-4-oxo-4H-3,1-benzoxazin-2-yl)-O-methyl-L-tyrosine, methyl ester], the EC50 was determined as 59 µM.

Take `COc1ccc(C[C@H](Nc2nc3cccc(OC)c3c(=O)o2)C(=O)N(C)Cc2ccccc2)cc1` [Example 1u, N-[5-Methoxy-4-oxo-4H-3,1-benzoxazin-2-yl]-O-methyl-L-tyrosine, N-methyl-N-phenylmethylamide]: the concentration for a half-maximal effect (EC50) was determined as 14 µM.

`Cc1cccc2nc(N[C@@H](Cc3ccc(O)cc3)C(=O)OC(C)(C)C)oc(=O)c12` [Example 1l, N-(5-Methyl-4-oxo-4H-3,1-benzoxazin-2-yl)-L-tyrosine, 1,1-dimethylethyl ester]: the EC50 was determined as 35 µM.

For the compound `Cc1c(CNS(C)(=O)=O)cc(Br)c2nc(N[C@@H](Cc3ccccc3)C(=O)N(C)Cc3ccccc3)oc(=O)c12` [Example 15j, αS-[[8-Bromo-5-methyl-6-[[(methylsulfonyl)amino]methyl]-4-oxo-4H-3,1-benzoxazin-2-yl]amino]-N-methyl-N-(phenylmethyl)benzenepropanamide], the EC50 was determined as 13 µM.

As to `COc1ccc(C[C@H](Nc2nc3ccc(CNC(=O)C(C)(C)C)c(C)c3c(=O)o2)C(=O)N(C)Cc2ccccc2)cc1` [Example 9l, αS-[[6-[[(2,2-Dimethyl-1-oxopropyl)amino]methyl]-5-methyl-4-oxo-4H-3,1-benzoxazin-2-yl]amino]-4-methoxy-N-methyl-N-(phenylmethyl)benzenepropanamide], the EC50 stood at 65 µM.

With `Cc1c(CNC(=O)OCc2ccccc2)ccc2nc(N[C@@H](Cc3ccccc3)C(=O)N(C)Cc3cccnc3)oc(=O)c12` [Example 9z], the EC50 amounted to 10 µM.

For the compound `COc1ccc(C[C@H](Nc2nc3cccc(C)c3c(=O)o2)C(=O)N(C)Cc2ccccc2)cc1` [Example 1s, αS-[(5-Methyl-4-oxo-4H-3,1-benzoxazin-2-yl)amino]-4-methoxy-N-methyl-N-(phenylmethyl)benzenepropanamide], the EC50 came to 7 µM.

With `Cc1c(NC(=O)OC(C)(C)C)ccc2nc(N[C@@H](Cc3ccc(I)cc3)C(=O)N(C)C)oc(=O)c12` [Example 6cc, 1,1-Dimethylethyl[2-[[2-(dimethylamino)-1S-[(4-iodophenyl)methyl]-2-oxoethyl]amino]-5-methyl-4-oxo-4H-3,1-benzoxazin-6-yl]carbamate], the EC50 turned out to be 40 µM.

Turning to `COc1ccc(C[C@H](Nc2nc3ccc(NC(=O)Cc4cccs4)c(C)c3c(=O)o2)C(=O)N2CCCC2)cc1` [Example 11o, N-[2-[[1S-[(4-Methoxyphenyl)methyl]-2-oxo-2-(1-pyrrolidinyl)ethyl]amino]-5-methyl-4-oxo-4H-3,1-benzoxazin-6-yl]thiophene-2-acetamide], the EC50 is 59 µM.

Take `COc1ccc(C[C@H](Nc2nc3ccc(CNC(=O)CN4CCOCC4)c(C)c3c(=O)o2)C(=O)N(C)Cc2ccccc2)cc1` [Example 9n, N-[[2-[[1S-[(4-Methoxyphenyl)methyl]-2-[methyl(phenylmethyl)amino]-2-oxoethyl]amino]-5-methyl-4-oxo-4H-3,1-benzoxazin-6-yl]methyl]morpholine-4-acetamide]: the EC50 was 75 µM.

On to `COC(=O)[C@@H](C)Nc1nc2cccc(C)c2c(=O)o1` [Example 1c, N-(5-Methyl-4-oxo-4H-3,1-benzoxazin-2-yl)-D-alanine, methyl ester], for which the EC50 was over 100 µM.

As for `Cc1c(CNC(=O)C=Cc2ccccc2)ccc2nc(N[C@@H](Cc3ccccc3)C(=O)N(C)Cc3ccccc3)oc(=O)c12` [Example 9v, N-Methyl-αS-[[5-methyl-6-[[(1-oxo-3-phenyl-2-propenyl)amino]methyl]-4-oxo-4H-3,1-benzoxazin-2-yl]amino]-N-(phenylmethyl)benzenepropanamide], the EC50 was 26 µM.

In the case of `Cc1cccc2nc(N[C@H](C)c3ccccc3)oc(=O)c12` [Example 3c, 5-Methyl-2-[[(1R)-1-phenylethyl]amino]-4H-3,1-benzoxazin-4-one], the EC50 worked out at 17 µM.

Broadly, the EC50 is the concentration at which the effect is half-maximal.
